From ChEMBL document CHEMBL4507269, “Data for DCP probe BAY-386” (2021)

What was measured:
[1] = target: Cyclin-dependent kinase 7 (Homo sapiens) (UniProt P50613); conditions: Compound concentration 1000.0 nM
[2] = target: Protein kinase C theta type (Homo sapiens) (UniProt Q04759); conditions: Compound concentration 1000.0 nM
[3] = target: Proto-oncogene tyrosine-protein kinase Src (Homo sapiens) (UniProt P12931); conditions: Compound concentration 1000.0 nM
[4] = target: Serine/threonine-protein kinase mTOR (Homo sapiens) (UniProt P42345); conditions: Compound concentration 1000.0 nM
[5] = target: Serine/threonine-protein kinase OSR1 (Homo sapiens) (UniProt O95747); conditions: Compound concentration 1000.0 nM
[6] = target: Phosphatidylinositol 4,5-bisphosphate 3-kinase catalytic subunit delta isoform (Homo sapiens) (UniProt O00329); conditions: Compound concentration 1000.0 nM
[7] = target: Wee1-like protein kinase 2 (Homo sapiens) (UniProt P0C1S8); conditions: Compound concentration 1000.0 nM
[8] = target: Mitogen-activated protein kinase 6 (Homo sapiens) (UniProt Q16659); conditions: Compound concentration 1000.0 nM
[9] = target: T1, Alpha-1D adrenergic receptor (Homo sapiens) (UniProt P25100); conditions: Compound concentration 10.0 uM
T1 sequence (whole entry): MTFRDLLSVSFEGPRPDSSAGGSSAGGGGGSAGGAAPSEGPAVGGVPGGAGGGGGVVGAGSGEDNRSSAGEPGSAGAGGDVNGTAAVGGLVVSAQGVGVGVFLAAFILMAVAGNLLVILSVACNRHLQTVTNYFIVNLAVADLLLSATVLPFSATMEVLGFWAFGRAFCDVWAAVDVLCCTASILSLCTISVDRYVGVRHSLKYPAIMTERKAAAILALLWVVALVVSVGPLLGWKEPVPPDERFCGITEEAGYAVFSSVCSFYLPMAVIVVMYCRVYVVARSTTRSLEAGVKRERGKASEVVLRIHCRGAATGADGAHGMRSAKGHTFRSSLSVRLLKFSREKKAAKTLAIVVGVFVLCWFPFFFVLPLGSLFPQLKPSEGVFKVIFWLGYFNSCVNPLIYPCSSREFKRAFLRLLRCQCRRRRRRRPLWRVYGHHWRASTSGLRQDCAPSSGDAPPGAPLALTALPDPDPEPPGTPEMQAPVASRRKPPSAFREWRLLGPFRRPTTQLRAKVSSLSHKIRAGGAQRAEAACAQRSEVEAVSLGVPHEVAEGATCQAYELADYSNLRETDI

[10] = target: T2, Adenosine receptor A3 (Homo sapiens) (UniProt P0DMS8); assay: A3 (h) Eurofins-Cerep Cellular and Nuclear Receptor Functional Assays; conditions: Compound concentration 10.0 uM
T2 sequence (whole entry): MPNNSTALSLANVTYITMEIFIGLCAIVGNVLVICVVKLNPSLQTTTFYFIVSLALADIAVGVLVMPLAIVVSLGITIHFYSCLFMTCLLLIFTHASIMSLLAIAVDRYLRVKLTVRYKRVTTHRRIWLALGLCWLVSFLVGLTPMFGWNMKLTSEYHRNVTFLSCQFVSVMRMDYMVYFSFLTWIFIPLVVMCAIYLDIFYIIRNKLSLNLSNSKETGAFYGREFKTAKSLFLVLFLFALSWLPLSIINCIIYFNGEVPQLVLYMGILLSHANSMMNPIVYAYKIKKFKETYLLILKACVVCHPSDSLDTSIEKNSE

[11] = target: Tyrosine-protein kinase receptor UFO (Homo sapiens) (UniProt P30530); conditions: Compound concentration 1000.0 nM
[12] = target: Serine/threonine-protein kinase Nek11 (Homo sapiens) (UniProt Q8NG66); conditions: Compound concentration 1000.0 nM
[13] = target: Serine/threonine-protein kinase pim-1 (Homo sapiens) (UniProt P11309); conditions: Compound concentration 1000.0 nM
[14] = target: ALK tyrosine kinase receptor (Homo sapiens) (UniProt Q9UM73); conditions: Compound concentration 1000.0 nM
[15] = target: Serine/threonine-protein kinase PAK 4 (Homo sapiens) (UniProt O96013); conditions: Compound concentration 1000.0 nM
[16] = tested on: Epidermal growth factor receptor (Homo sapiens), P00533 [L858R,T790M]; conditions: Compound concentration 1000.0 nM
[17] = target: Cyclin-dependent kinase 2 (Homo sapiens) (UniProt P24941); conditions: Compound concentration 1000.0 nM
[18] = target: Cyclin-dependent kinase 19 (Homo sapiens) (UniProt Q9BWU1); conditions: Compound concentration 1000.0 nM
[19] = target: Ephrin type-A receptor 5 (Homo sapiens) (UniProt P54756); conditions: Compound concentration 1000.0 nM
[20] = target: Serine/threonine-protein kinase LATS1 (Homo sapiens) (UniProt O95835); conditions: Compound concentration 1000.0 nM
[21] = tested on: ALK tyrosine kinase receptor (Homo sapiens), Q9UM73 [L1196M]; conditions: Compound concentration 1000.0 nM
[22] = target: Phosphatidylinositol 4-phosphate 5-kinase type-1 gamma (Homo sapiens) (UniProt O60331); conditions: Compound concentration 1000.0 nM
[23] = target: Transient receptor potential cation channel subfamily M member 6 (Homo sapiens) (UniProt Q9BX84); conditions: Compound concentration 1000.0 nM
[24] = target: Proto-oncogene tyrosine-protein kinase receptor Ret (Homo sapiens) (UniProt P07949); conditions: Compound concentration 1000.0 nM
[25] = target: Dual serine/threonine and tyrosine protein kinase (Homo sapiens) (UniProt Q6XUX3); conditions: Compound concentration 1000.0 nM
[26] = tested on: Phosphatidylinositol 4,5-bisphosphate 3-kinase catalytic subunit alpha isoform (Homo sapiens), P42336 [E545A]; conditions: Compound concentration 1000.0 nM
[27] = target: NT-3 growth factor receptor (Homo sapiens) (UniProt Q16288); conditions: Compound concentration 1000.0 nM
[28] = target: Calcium/calmodulin-dependent protein kinase type IV (Homo sapiens) (UniProt Q16566); conditions: Compound concentration 1000.0 nM
[29] = tested on: Receptor-type tyrosine-protein kinase FLT3 (Homo sapiens), P36888 [D835Y]; conditions: Compound concentration 1000.0 nM
[30] = target: Ribosomal protein S6 kinase alpha-2 (Homo sapiens) (UniProt Q15349); conditions: Compound concentration 1000.0 nM
[31] = target: RAC-beta serine/threonine-protein kinase (Homo sapiens) (UniProt P31751); conditions: Compound concentration 1000.0 nM
[32] = target: Dual specificity protein kinase CLK4 (Homo sapiens) (UniProt Q9HAZ1); conditions: Compound concentration 1000.0 nM
[33] = target: LIM domain kinase 2 (Homo sapiens) (UniProt P53671); conditions: Compound concentration 1000.0 nM

ALK tyrosine kinase receptor (Homo sapiens), sequence (Q9UM73 19-1620 limits assumed): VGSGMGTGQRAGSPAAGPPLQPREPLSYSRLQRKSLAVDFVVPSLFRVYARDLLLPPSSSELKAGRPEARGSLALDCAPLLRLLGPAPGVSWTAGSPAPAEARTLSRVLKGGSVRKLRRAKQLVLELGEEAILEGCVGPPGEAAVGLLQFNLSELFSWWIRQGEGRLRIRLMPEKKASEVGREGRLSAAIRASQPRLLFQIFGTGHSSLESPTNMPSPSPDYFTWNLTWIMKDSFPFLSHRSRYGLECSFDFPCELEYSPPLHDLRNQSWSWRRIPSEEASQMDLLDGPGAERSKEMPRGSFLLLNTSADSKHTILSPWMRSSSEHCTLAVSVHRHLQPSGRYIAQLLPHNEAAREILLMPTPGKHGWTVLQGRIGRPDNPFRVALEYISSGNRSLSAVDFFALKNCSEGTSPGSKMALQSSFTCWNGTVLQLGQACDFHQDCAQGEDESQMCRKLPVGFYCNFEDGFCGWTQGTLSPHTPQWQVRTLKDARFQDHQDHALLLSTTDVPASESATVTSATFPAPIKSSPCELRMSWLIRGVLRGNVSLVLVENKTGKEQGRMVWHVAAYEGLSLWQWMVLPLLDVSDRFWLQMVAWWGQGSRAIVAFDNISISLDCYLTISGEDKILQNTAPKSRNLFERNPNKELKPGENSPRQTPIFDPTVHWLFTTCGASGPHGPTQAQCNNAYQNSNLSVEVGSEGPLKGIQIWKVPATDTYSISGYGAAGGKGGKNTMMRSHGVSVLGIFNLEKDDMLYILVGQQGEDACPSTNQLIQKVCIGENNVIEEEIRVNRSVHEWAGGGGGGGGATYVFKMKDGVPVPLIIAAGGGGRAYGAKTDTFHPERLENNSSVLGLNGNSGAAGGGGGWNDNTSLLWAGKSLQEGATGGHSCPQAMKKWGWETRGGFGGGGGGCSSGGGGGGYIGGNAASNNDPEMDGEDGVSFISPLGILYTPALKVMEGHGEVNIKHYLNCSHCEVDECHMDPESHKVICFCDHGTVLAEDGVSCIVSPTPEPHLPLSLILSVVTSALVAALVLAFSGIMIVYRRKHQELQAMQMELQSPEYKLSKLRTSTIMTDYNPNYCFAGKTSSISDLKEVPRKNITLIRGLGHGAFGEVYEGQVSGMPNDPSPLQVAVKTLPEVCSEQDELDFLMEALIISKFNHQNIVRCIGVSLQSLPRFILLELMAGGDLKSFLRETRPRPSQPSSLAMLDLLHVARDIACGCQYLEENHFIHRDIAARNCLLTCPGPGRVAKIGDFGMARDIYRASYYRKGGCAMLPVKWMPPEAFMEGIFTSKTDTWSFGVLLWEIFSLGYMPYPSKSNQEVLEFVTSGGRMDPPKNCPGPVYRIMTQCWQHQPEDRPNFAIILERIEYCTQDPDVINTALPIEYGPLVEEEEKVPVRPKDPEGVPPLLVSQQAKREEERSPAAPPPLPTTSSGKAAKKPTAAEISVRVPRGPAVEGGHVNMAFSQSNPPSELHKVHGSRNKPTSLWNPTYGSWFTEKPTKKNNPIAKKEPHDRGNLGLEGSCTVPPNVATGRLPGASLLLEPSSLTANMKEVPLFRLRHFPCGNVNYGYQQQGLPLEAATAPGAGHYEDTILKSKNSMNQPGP
Tyrosine-protein kinase receptor UFO (Homo sapiens), sequence (P30530 whole entry): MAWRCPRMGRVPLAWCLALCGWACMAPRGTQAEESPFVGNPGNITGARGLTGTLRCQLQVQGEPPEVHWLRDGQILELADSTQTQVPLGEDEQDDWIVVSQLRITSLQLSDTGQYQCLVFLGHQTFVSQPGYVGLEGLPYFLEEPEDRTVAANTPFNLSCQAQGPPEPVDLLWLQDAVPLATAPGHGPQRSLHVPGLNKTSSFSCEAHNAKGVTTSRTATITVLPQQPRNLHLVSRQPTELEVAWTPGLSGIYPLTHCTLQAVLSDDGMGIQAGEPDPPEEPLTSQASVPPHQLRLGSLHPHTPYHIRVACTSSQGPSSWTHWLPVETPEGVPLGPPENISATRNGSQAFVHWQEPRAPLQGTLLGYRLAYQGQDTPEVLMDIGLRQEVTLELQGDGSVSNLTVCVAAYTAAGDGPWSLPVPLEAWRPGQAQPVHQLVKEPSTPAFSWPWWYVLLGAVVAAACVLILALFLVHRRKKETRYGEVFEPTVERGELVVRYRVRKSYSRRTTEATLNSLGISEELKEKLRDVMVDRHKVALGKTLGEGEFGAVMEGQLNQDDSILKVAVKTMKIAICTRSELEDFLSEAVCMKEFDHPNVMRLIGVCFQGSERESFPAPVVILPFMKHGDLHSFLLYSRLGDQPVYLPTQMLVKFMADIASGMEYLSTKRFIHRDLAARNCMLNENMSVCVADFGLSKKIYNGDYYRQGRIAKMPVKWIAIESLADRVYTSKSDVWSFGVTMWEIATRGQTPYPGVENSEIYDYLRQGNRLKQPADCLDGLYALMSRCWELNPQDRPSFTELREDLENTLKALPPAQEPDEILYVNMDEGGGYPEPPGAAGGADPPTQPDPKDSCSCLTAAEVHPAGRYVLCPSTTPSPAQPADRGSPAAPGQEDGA
Calcium/calmodulin-dependent protein kinase type IV (Homo sapiens), sequence (Q16566 whole entry): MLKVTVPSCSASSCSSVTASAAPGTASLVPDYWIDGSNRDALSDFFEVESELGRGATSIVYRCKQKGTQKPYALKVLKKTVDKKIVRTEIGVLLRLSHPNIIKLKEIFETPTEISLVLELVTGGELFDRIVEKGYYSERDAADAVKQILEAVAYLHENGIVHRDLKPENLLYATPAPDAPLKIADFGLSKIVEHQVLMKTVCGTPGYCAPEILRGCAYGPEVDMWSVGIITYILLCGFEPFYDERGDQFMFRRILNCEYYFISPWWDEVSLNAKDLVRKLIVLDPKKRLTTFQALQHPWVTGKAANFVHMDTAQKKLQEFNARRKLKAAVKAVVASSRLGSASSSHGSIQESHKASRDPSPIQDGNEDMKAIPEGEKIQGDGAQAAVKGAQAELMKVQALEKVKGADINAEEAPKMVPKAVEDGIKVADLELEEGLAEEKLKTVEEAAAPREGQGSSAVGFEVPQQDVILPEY
Dual serine/threonine and tyrosine protein kinase (Homo sapiens), sequence (Q6XUX3 whole entry, canonical isoform): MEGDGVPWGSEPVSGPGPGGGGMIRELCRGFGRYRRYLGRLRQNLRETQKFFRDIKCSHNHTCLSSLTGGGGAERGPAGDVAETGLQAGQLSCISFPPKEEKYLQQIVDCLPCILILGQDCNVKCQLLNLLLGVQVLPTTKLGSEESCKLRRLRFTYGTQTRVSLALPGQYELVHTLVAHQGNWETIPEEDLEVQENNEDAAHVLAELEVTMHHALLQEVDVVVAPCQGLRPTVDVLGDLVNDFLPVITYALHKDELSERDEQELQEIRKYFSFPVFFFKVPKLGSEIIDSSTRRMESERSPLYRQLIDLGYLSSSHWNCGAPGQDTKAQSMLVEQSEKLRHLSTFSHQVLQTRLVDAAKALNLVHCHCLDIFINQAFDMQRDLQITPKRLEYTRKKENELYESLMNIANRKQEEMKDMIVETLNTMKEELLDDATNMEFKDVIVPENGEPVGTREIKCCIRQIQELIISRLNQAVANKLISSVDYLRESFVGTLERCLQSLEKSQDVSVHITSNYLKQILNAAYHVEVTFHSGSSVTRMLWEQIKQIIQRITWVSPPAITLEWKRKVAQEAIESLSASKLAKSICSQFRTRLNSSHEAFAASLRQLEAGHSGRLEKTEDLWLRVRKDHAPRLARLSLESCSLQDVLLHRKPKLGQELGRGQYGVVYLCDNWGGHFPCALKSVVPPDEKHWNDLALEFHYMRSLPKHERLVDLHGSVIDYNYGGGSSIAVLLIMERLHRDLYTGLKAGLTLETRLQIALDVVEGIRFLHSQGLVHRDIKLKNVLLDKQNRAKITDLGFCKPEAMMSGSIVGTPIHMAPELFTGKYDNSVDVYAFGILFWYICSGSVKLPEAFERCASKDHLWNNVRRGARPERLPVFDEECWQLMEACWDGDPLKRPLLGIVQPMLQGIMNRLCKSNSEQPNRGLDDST
Wee1-like protein kinase 2 (Homo sapiens), sequence (P0C1S8 whole entry, looked up): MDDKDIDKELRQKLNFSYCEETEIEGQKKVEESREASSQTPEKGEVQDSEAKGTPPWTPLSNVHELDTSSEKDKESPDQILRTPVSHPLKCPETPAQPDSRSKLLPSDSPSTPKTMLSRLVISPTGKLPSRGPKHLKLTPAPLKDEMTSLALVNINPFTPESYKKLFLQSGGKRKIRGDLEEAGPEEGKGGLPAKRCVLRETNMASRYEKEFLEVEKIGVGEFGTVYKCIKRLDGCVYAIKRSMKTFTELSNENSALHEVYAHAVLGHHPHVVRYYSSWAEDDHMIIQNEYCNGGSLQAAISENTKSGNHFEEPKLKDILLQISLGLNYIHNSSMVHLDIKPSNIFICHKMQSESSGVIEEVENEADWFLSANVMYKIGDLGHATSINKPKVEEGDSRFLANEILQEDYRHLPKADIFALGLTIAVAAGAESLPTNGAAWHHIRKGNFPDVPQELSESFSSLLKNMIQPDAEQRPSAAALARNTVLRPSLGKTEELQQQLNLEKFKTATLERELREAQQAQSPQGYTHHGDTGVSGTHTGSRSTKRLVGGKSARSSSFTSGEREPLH
Serine/threonine-protein kinase OSR1 (Homo sapiens), sequence (O95747 2-527 limits assumed): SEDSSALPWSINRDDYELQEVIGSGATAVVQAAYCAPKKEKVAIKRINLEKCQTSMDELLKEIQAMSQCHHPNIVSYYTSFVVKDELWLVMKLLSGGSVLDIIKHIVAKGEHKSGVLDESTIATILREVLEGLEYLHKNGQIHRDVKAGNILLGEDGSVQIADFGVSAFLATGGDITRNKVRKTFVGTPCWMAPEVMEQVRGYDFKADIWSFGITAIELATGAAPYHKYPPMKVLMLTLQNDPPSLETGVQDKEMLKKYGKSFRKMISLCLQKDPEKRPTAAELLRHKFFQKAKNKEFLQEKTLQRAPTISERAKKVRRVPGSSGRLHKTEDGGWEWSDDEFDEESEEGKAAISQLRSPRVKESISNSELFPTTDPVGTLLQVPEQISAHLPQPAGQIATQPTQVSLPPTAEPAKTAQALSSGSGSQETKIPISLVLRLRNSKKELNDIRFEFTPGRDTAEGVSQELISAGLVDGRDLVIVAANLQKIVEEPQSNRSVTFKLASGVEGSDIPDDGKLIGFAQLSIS

Compound | residual activity [1] [%] | residual activity [2] [%] | residual activity [3] [%] | residual activity [4] [%] | residual activity [5] [%] | residual activity [6] [%] | residual activity [7] [%] | residual activity [8] [%] | inhibition [9] [%] | % Inhibition of Control Agonist Response (Mean n=2) [10] [%] | % of Control Agonist Response (Mean n=2) [10] [%] | residual activity [11] [%] | residual activity [12] [%] | residual activity [13] [%] | residual activity [14] [%] | residual activity [15] [%] | residual activity [16] [%] | residual activity [17] [%] | residual activity [18] [%] | residual activity [19] [%] | other results
Cc1noc([C@H]2C[C@@H](c3ccc(C(F)(F)F)cc3)CN(C(=O)N3CCS(=O)(=O)C3)C2)n1 [BAY-448] | 89 | 87 | 96 | 92 | 89 | 100 | 100 | 100 | -1.84 | 12.2 | 19.2 | 100 | 100 | 100 | 100 | 100 | 96 | 100 | 100 | 100 | residual activity [20]: 100%; residual activity [21]: 100%; residual activity [22]: 100%; residual activity [23]: 100%; residual activity [24]: 100%; residual activity [25]: 94%; residual activity [26]: 64%; residual activity [27]: 100%; residual activity [28]: 95%; residual activity [29]: 100%; residual activity [30]: 92%; residual activity [31]: 96%; residual activity [32]: 83%; residual activity [33]: 100%
O=C(N1CCS(=O)(=O)CC1)N1C[C@H](c2ccc(OC(F)(F)F)cc2)C[C@H](c2nc(C3CC3)no2)C1 [BAY-386] | 100 | 86 | 97 | 100 | 100 | 97 | 100 | 100 | 2.45 | -13.1 | 2.5 | 100 | 100 | 100 | 100 | 100 | 59 | 100 | 100 | 96 | residual activity [20]: 100%; residual activity [21]: 65%; residual activity [22]: 100%; residual activity [23]: 100%; residual activity [24]: 93%; residual activity [25]: 100%; residual activity [26]: 100%; residual activity [27]: 100%; residual activity [28]: 91%; residual activity [29]: 100%; residual activity [30]: 100%; residual activity [31]: 90%; residual activity [32]: 100%; residual activity [33]: 95%
